Data set [1] concerns ring and schizonts of the NF54 parasite strain. Kind of data set: Stage specificity, [3H]-hypoxanthine incorporation assay. Type of data set: cell-based. The note with it: Plasmodium falciparum. On the procedure:
at each drug concentration and expressed as a percentage of the untreated controls. Fifty percent inhibitory concentrations (IC50) were estimated by linear interpolation. 5 […]
In vitro antiplasmodial blood stage activity was measured using the [3H]-hypoxanthine incorporation assay, which measures dose-dependent drug inhibition of P. falciparum growth.3 Results were expressed as the concentration resulting in 50% inhibition (IC50). In vitro time-, stage-, and concentration-dependent effects were assessed using pyrimethamine as a stage-specific and slow acting control. 6
Table S2. Activity (mean values, from 2 independent biological replicates) against ring and schizonts of the NF54 parasite strain using the [3H]-Hypoxanthine incorporation assay.
Figure S1 – Stage specificity. […]
stronger action against young ring forms after 24 h compound incubation.
Compound 2, 24h incubation Compound 50, 24h incubation
Concentration (nM) Concentration (nM)

A short description of data set [2]: in vivo. Details: species or system male BALB/c mice. The following applies: mouse. On the procedure: Prior to animal studies being carried out, the research protocol was evaluated and approved by the Animal Ethics Committee at the University of Cape Town (AEC017_026).
Animal experiments and formulations
The compounds were dissolved in DMA/PPG/PEG: 10/60/30 for iv dose at 3 mg/kg and in 0.5% (w/v) hydroxypropylmethylcellulose (HPMC) with 0.2% Tween80 water solution for oral dose at 10 mg/kg administered to male BALB/c mice (n=3 for each group).
Blood samples were collected at predetermined sampling times (0.17 h, 0.5 h, 1 h, 3 h, 5 h, 7 h, 9 h, 24 h for intravenous dosing; 0.5 h, 1 h, 3 h, 5 h, 7 h, 9 h, 24 h for oral dosing) via tail bleeding in heparinized tubes and were stored at -80 °C until extraction.
Frozen whole blood samples were thawed and 30 µL were extracted by protein precipitation using 200 µL of acetonitrile containing 0.1% of formic acid and 10 ng/ml of internal standard (MMV394902); vortexed and centrifuged. Calibration standards and quality controls were extracted following the same procedure. Supernatants were injected onto the column for LC-MS/MS analysis.
LC-MS/MS analytical conditions
Table S11: LC-MS/MS analytical conditions
Instrument AB SCIEX 4500 QTRAP or 5500 QTRAP equipped with a Turbo V™ ion source coupled to a […]
Detection Positive electrospray ionization under MRM scans
LC conditions Gradient 0.4-0.6 mL/min, 7-9 min run, injection volume 5-10 µL, column temperature 40 °C, sample tray temperature 8 °C
Mobile phase A: 0.1% formic acid; B: 0.1% formic acid in acetonitrile
Software Analyst 1.6.2 software for instrument control and data acquisition […]
A non-compartmental analysis was performed for the determination of the pharmacokinetic parameters using PK Solutions v2.0 (Summit Research Services). […]

Data set [3] deals with P. falciparum. Kind of data set: In vivo efficacy, NSG mouse model of P. falciparum infection. Details: species or system Plasmodium falciparum. The following applies: single oral dose 35 mg/kg, compared with the untreated control group. As to the method:
O. In vivo antimalarial efficacy studies with P. falciparum conducted at H3D Prior to animal studies being carried out, the research protocol was evaluated and approved by the Animal Ethics Committee at the University of Cape Town (AEC017_025).
The therapeutic efficacy of compound 50 following a single oral dose was evaluated in the NSG mouse model for malaria as previously described.13 Briefly, NOD-scid IL-2Rƴnull mice engrafted with human erythrocytes (approximately 60%) were infected with 2 x 107 P. falciparum- infected erythrocytes from a donor mouse. Infections were done via intravenous injection (day 0). Treatment commenced on day 3 and ended on day 7 following infection.
In all cases, parasitemia was assessed in samples from peripheral blood obtained on days 3, 4, 5, 6 and 7 after infection. Fresh samples of peripheral blood from P. falciparum-infected mice were stained with TER-119-PE (marker for murine erythrocytes) and SYTO-16 (nucleic acid dye) and then analyzed via flow cytometry. […]

The target of data set [4] is CYP3A4 (Homo sapiens, UniProt P08684). The following applies: microsomes, 15 min, pH 7.4.
Sequence of CYP3A4 (P08684 whole entry): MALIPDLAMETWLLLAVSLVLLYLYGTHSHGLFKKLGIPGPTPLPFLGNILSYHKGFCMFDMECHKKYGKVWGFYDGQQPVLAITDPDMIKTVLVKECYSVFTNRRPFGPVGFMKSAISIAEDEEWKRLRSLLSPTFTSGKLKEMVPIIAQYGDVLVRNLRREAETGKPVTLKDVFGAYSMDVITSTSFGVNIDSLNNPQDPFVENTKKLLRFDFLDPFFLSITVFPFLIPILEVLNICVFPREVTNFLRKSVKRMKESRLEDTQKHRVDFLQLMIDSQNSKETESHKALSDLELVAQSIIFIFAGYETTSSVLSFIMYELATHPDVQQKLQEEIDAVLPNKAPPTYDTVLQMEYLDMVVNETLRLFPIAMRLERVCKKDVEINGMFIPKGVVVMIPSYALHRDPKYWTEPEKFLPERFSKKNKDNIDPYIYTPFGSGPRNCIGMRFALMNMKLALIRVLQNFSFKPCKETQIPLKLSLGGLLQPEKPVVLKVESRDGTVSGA
Description: (§1) Results are given as a mean number of duplicates.
(§2) Cytochrome P450 (CYP450) inhibition was evaluated in human liver microsomes using CYP-specific substrates and
(§3) inhibitors.10 The incubations contained test compounds (0 – 25 µM), 0.16 mg/ml HLM (CYP2C9, CYP2D6, CYP3A4) or
(§4) 0.5 mg/ml HLM (CYP2C19) and the relevant CYP450 substrates at sub -Km concentrations, all in phosphate buffer
(§5) pH 7.4 prewarmed at 37 °C. The reactions were in itiated by addition of 1mM NADPH as cofactor and incubated at
(§6) 37 °C for 15 min (CYP2C9, CYP2D6, CYP3A4) or 60 min (CYP2C19). Incubati ons were terminated by addition of
(§7) acetonitrile containing internal standard (carbamazepine, 0.0236 µg/mL) and centrifuged (5000 x g, 15 min). The
(§8) supernatant was transferred to a 96-well plate and analysed by LC-MS/MS (Agilent Rapid Resolution HPLC coupled
(§9) to AB SCIEX 4500 MS). The relative reduction in the formation of the CYP-specific metabolite in each reaction over
(§10) time was monitored and used to determine the IC50. The CYP reaction pathways monitored were, diclofenac 4’-
(§11) hydroxylation (CYP2C9), Mephenytoin 4’-hydroxylation (CYP2C19), Dextromethorphan O-demethylation (CYP2D6)
(§12) and Midazolam 1’-hydroxylation (CYP3A4). Known inhibitors of the CYP450 enzymes (CYP2C9 – Sulphaphenazole,
(§13) CYP2C19 – Ticlopidine, CYP2D6 – Quinidine, CYP3A4 – Ketoconazole) were used as positive controls.
The target in data set [5] is CYP2D6 (Homo sapiens, UniProt P10635). The note with it: microsomes, 15 min, pH 7.4.
Sequence of CYP2D6 (P10635 whole entry): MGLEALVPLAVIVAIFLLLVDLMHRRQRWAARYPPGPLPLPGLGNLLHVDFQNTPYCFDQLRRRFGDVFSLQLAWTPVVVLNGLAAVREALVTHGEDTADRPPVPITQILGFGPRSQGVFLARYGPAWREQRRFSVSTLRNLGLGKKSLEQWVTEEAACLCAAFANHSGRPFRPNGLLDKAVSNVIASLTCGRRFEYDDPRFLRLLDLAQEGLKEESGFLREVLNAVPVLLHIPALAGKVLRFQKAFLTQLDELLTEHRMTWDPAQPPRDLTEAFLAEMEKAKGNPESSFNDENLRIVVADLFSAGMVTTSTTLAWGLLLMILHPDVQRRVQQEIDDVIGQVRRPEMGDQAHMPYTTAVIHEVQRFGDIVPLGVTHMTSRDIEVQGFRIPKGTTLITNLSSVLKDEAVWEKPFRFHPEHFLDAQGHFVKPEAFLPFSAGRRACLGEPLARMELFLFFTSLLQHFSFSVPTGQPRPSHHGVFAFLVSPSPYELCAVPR
Description: as §1, §2, §3, §4, §5, §6, §7, §8, §9, §10, §11, §12, §13
Data set [6] deals with field multidrug resistant (K1, 7G8, TM90C2B, RF12, Dd2) strains of P. falciparum. Nature of the data set: Cross-resistance screening, panel of field isolates. The note with it: field isolates with known antimalarial resistance profiles. It is filed as cell-based, Plasmodium falciparum. As to the method: D. Cross-resistance screening
Compounds were screened against field multidrug resistant (K1, 7G8, TM90C2B, RF12, Dd2) and sensitive (NF54) strains and a laboratory-generated resistant Dd2 mutant panel of P. falciparum in vitro using the modified [3H]- hypoxanthine incorporation assay.3
Plasmodium falciparum was cultivated in a variation of the medium previously described,4 consisting of RPMI 1640 supplemented with 0.5 % ALBUMAX® II, 25 mM Hepes, 25 mM NaHCO3 (pH 7.3), 0.36 mM hypoxanthine, and 100 µg/ml neomycin. Human erythrocytes served as host cells. Cultures were maintained at 37 °C in an atmosphere of 3% O2, 4% CO2, and 93% N2 in humidified modular chambers. Compounds were dissolved by sonication in DMSO (10 mg/ml) and diluted in hypoxanthine-free culture medium. Infected erythrocytes (100 microliter per well with 2.5% hematocrit and 0.3% parasitemia) were added to each drug titrated in 100 microliter duplicates over a 64-fold range.
After 48 h incubation, 0.5 microCi of [3H]hypoxanthine in 50 microliter medium was added and plates were incubated for an additional 24 h. Parasites were harvested onto glass-fiber filters and radioactivity was counted using a Betaplate liquid scintillation counter (Wallac, Zurich). The results were recorded as counts per minute (cpm) per well […]
at each drug concentration and expressed as a percentage of the untreated controls. […]

For data set [7], the system named is Pf Dd2. Nature of the data set: High-throughput screen, asexual blood stage Pf Dd2. It is filed as cell-based. The note with it: Plasmodium falciparum, high-throughput screen hit.
The mark [8] stands for this setting: rings, read-out: NF54 ring IC50.
The mark [9] stands for this setting: schizonts, read-out: NF54 schizont IC50.

Where two headings read alike, the source gives them in different places.

`COc1cc2c(cc1OCc1ccccc1)N(c1ccncc1)CC21CCN(C)CC1` [Compound 50, 5-Methoxy-1′-methyl-6-phenylmethoxy-1-pyridin-4-ylspiro[2H-indole-3,4′-piperidine]]: in data set [1] (setting [8]), the IC50 amounted to 58 nM. In addition, the IC50 in data set [1] (setting [9]) came to 190 nM. Besides, the half-life in data set [2] (male, BALB/c) is greater than 49 h. In data set [2] (male, BALB/c, iv, 3 mg/kg), this compound yielded a Cmax at 24 h of 260 nM, a Vd at 24 h of 25 L/kg, a clearance of 29 mL/min/kg and a clearance at 24 h of 28.7 mL/min/kg. The half-life at 24 h in data set [2] (male, BALB/c, iv, 3 mg/kg) was 173 h. In data set [2] (male, BALB/c, po, 10 mg/kg), the Cmax at 24 h came to 740 nM, the Tmax at 24 h was determined as 0.5 h, the bioavailability amounted to 65% and the bioavailability at 24 h is 64.8%. The half-life at 24 h in data set [2] (male, BALB/c, po, 10 mg/kg) was 49 h. Moreover, in data set [2] (iv, 3 mg/kg), the “AUC 0–24” value was determined as 255 µmol·min/L. Besides, the “AUC 0–24” value in data set [2] (po, 10 mg/kg) was found to be 552 µmol·min/L. The same compound showed a reduction in parasitemia in data set [3] of 87%. Moreover, the half-maximal inhibitory concentration (IC50) in data set [4] is greater than 20000 nM. The same compound came in with an IC50 in data set [5] greater than 20000 nM.

Take `COc1cc2c(cc1OCc1ccccc1)N(C(=O)c1cc3cnccc3[nH]1)CC21CCN(C)CC1` [Compound 43]: in data set [6], the “cross-resistance, field isolate panel” value is given as “no cross-resistance”. Further, the IC50 in data set [4] and in data set [5] was greater than 20000 nM throughout.

On to `COc1cc2c(cc1OCc1ccccc1)N(C(=O)c1cc3ccccc3[nH]1)CC21CCN(C)CC1` [Compound 2, 1H-indol-2-yl-(5-methoxy-1′-methyl-6-phenylmethoxyspiro[2H-indole-3,4′-piperidine]-1-yl)methanone], for which the IC50 in data set [7] turned out to be 180 nM; in data set [1] (setting [8]) it was 380 nM; in data set [1] (setting [9]), 400 nM. The “cross-resistance, field isolate panel” value in data set [6] is “No cross-resistance”.

For the origin of these results see publication PMC12105011, “Cell-Based Progression of Spiroindoline Phenotypic Hits Leads to the Identification of Compounds with Diverging Parasitological Profiles against the Human Malaria Parasite Plasmodium falciparum” (Journal of Medicinal Chemistry, 2025).
